From patent US20220184071A1, “GEPOTIDACIN FOR USE IN THE TREATMENT OF BACTERIAL URINARY TRACT INFECTIONS” (GlaxoSmithKline Intellectual Property Development Limited, priority 2019, published 2022) come the findings set out here.

A word on the MIC90: it is an inhibitory concentration at the 90% level, which refers to growth in some studies and to a panel of isolates in others. Usually MIC stands for the smallest concentration in the dilution series that meets the test's criterion for growth inhibition.

Converted amounts (≈) assume the structure as drawn. Like-named read-outs stand apart in the source and are kept apart here. Marks after values point to notes of the source that are not given here.

The test system of experiment [1] is Staphylococcus saprophyticus. The experiment can be described thus: MIC by CLSI broth microdilution in CAMHB and urine, Example 1 Method 3. In kind it is cell-based. The note with it: for Mean MIC: n = 6. As for the experimental part:
Antimicrobial activity was determined by broth microdilution using the CLSI recommended procedure.
(§1) The compounds were tested in serial two-fold dilutions and the minimum inhibitory concentration (MIC) was determined as the lowest concentration of the compound that inhibited visible growth.
In particular, gepotidacin was tested against 6 strains of Staphylococcus saprophyticus from the collection of isolates at Laboratory Specialists, Inc., Westlake, Ohio.
Levofloxacin was included as the comparator in the study to determine the effect of urine on the in vitro activity of gepotidacin against Staphylococcus saprophyticus. MICs were determined by broth microdilution according CLSI methods.
The data shown in the table below are results from an in vitro study conducted with the same S. saprophyticus isolates described above, to determine the effect of urine on the in vitro activity of gepotidacin and levofloxacin against S. saprophyticus. Study strains were tested for MICs (minimum inhibitory concentrations) according to reference CLSI broth microdilution method using cation-adjusted Mueller Hinton Broth (CAMHB) and with the addition of 25%, 50% and 100% urine (not pH adjusted, pH 6.42) and 100% urine (pH adjusted, 7.31 and 8.07).
Background: Dilution methods test growth across graded concentrations, often in twofold steps.

In experiment [2] the test system is Staphylococcus epidermidis. The experiment can be described thus: MIC by CLSI broth microdilution in CAMHB and urine, Example 5 Method 2. In kind it is cell-based. To be noted: for Mean MIC: n = 4. How it is done: as §1
In particular, gepotidacin was tested against 4 strains of Staphylococcus epidermidis from the collection of isolates at Laboratory Specialists, Inc., Westlake, Ohio.
Levofloxacin was included as the comparator in the study to determine the effect of urine on the in vitro activity of gepotidacin against Staphylococcus epidermidis. MICs were determined by broth microdilution according CLSI methods.
The data shown in the table below are results from an in vitro study conducted with the same S. epidermidis isolates described above, to determine the effect of urine on the in vitro activity of gepotidacin and levofloxacin against S. epidermidis. Study strains were tested for MICs according to reference CLSI broth microdilution method using cation-adjusted Mueller Hinton Broth (CAMHB) and with the addition of 25%, 50% and 100% urine (not pH adjusted, pH 6.42) and 100% urine (pH adjusted, 7.31 and 8.07).

For experiment [3], the system named is gram-positive anaerobe organisms combined. Briefly: MIC by CLSI agar dilution, Example 6 Method 1. To be noted: gram-positive anaerobes combined; read-out: overall MIC90. Type of experiment: cell-based. How it is done:
(§2) Antimicrobial activity was determined by agar dilution using the Clinical and Laboratory Standards Institute (CLSI) recommended procedure.
(§3) The compounds were tested in serial two-fold dilutions and the minimum inhibitory concentration (MIC) was determined as the lowest concentration of the compound that inhibited visible growth. Gepotidacin was tested against 333 gram-negative anaerobic and 203 gram-positive anaerobic isolates collected from clinical samples in North America and Europe from 2000 to 2017; the majority collected from 2013 to 2016.
(§4) Ceftriaxone, clindamycin, imipenem, metronidazole, moxifloxacin and piperacillin/tazobactam were included as comparators.
In general terms: In agar dilution the substance is mixed into plates at graded concentrations.

Experiment [4] relates to all the gram-negative anaerobe organisms combined. The experiment can be described thus: MIC by CLSI agar dilution, Example 6 Method 1. In kind it is cell-based. The note with it: all gram-negative anaerobes combined; read-out: overall MIC90. As for the experimental part: as §2, §3, §4
For experiment [5], the system named is E. coli. The experiment can be described thus: Phase IIa baseline uropathogen susceptibility testing (CLSI broth microdilution). The note with it: baseline visit. Type of experiment: cell-based, Escherichia coli. How it is done: (§5) This phase IIa single center study evaluated the safety, tolerability, pharmacokinetics, and efficacy of oral gepotidacin 1500 mg BID for 5 days in female subjects with acute cystitis. Clean catch mid-stream urine specimens were obtained for quantitative culture by standard methods. Urine samples were taken from all participants pre-treatment (baseline) and at all post-baseline visits. All urine samples were sent to a central laboratory (PPD Global Clinical Laboratories, Highland Heights, Ky., USA) for Gram stain, quantitative culture, pathogen identification and susceptibility testing. See FIG. 1 for participant disposition and study outline.
(§6) Susceptibility testing by CLSI broth microdilution and gradient diffusion (fosfomycin only) was conducted (CLSI, 2015, Methods for dilution antimicrobial susceptibility tests for bacteria that grow aerobically; approved standard-tenth edition; and CLSI, 2018. Performance Standards for Antimicrobial Susceptibility Testing; Twenty-seventh Informational Supplement M100-S28). Inclusion in the microbiological intent-to-treat population (micro-ITT), required growth of a qualifying baseline uropathogen (≥10^5 CFU/mL). See FIG. 2 for the baseline algorithm.

The test system of experiment [6] is qualifying uropathogens. The description is as above. In kind it is cell-based. As for the experimental part:
as §5, §6

On to `C[C@H]1COc2c(N3CCN(C)CC3)c(F)cc3c(=O)c(C(=O)O)cn1c23` [Levofloxacin, reference compound], for which the “Mean Dilution Difference” value in experiment [1] (25% Urine (pH 7.09) vs CAMHB) is 0.50; in experiment [1] (50% Urine (6.99) vs CAMHB), 0.17; in experiment [1] (100% Urine (pH 6.42) vs CAMHB), 0.67; in experiment [1] (100% Urine (pH 7.31) vs CAMHB), 1.50; in experiment [1] (100% Urine (pH 8.07) vs CAMHB) it was 1.17; in experiment [2] (25% Urine (pH 7.09) vs CAMHB), 0.25. For the same compound, the “Mean Dilution Difference” value was 0.25 in experiment [2] (50% Urine (6.99) vs CAMHB); 0.51 in experiment [2] (100% Urine (pH 6.42) vs CAMHB); 0.78 in experiment [2] (100% Urine (pH 7.31) vs CAMHB); 1.78 in experiment [2] (100% Urine (pH 8.07) vs CAMHB); “approximately 1.8” in experiment [2] (100% Urine (pH 8.07) vs CAMHB, listed as levofloxacin). In addition, the Mean difference in experiment [1] (25% Urine (pH 7.09) vs CAMHB) worked out at 0.33; in experiment [1] (50% Urine (6.99) vs CAMHB) it was 0.10; in experiment [1] (100% Urine (pH 6.42) vs CAMHB), 0.47; in experiment [1] (100% Urine (pH 7.31) vs CAMHB), 1.45; in experiment [1] (100% Urine (pH 8.07) vs CAMHB) it was 0.99; in experiment [2] (25% Urine (pH 7.09) vs CAMHB), 0.03. In addition, the Mean difference in experiment [2] (50% Urine (6.99) vs CAMHB) was 0.03; in experiment [2] (100% Urine (pH 6.42) vs CAMHB) it was 0.06; in experiment [2] (100% Urine (pH 7.31) vs CAMHB) it was 0.10; in experiment [2] (100% Urine (pH 8.07) vs CAMHB), 0.35. Besides, the “N(%) ± 1 dilution” value in experiment [1] (25% Urine (pH 7.09) vs CAMHB) was 6 (100%); in experiment [1] (50% Urine (6.99) vs CAMHB) it was 6 (100%); in experiment [1] (100% Urine (pH 6.42) vs CAMHB), 6 (100%); in experiment [1] (100% Urine (pH 7.31) vs CAMHB) it was 2 (33.3%); in experiment [1] (100% Urine (pH 8.07) vs CAMHB) it was 5 (83.3%); in experiment [2] (25% Urine (pH 7.09) vs CAMHB), 4 (100%). For the same compound, the “N(%) ± 1 dilution” value in experiment [2] (50% Urine (6.99) vs CAMHB) is 4 (100%); in experiment [2] (100% Urine (pH 6.42) vs CAMHB), 4 (100%); in experiment [2] (100% Urine (pH 7.31) vs CAMHB), 3 (75%); in experiment [2] (100% Urine (pH 8.07) vs CAMHB), 2 (50%). For the same compound, the “N(%) ± 2 dilution” value in experiment [1] (25% Urine (pH 7.09) vs CAMHB) is on record as 6 (100%); in experiment [1] (50% Urine (6.99) vs CAMHB), 6 (100%); in experiment [1] (100% Urine (pH 6.42) vs CAMHB), 6 (100%); in experiment [1] (100% Urine (pH 7.31) vs CAMHB), 6 (100%); in experiment [1] (100% Urine (pH 8.07) vs CAMHB), 6 (100%); in experiment [2] (25% Urine (pH 7.09) vs CAMHB), 4 (100%). For the same compound, the “N(%) ± 2 dilution” value in experiment [2] (50% Urine (6.99) vs CAMHB) is on record as 4 (100%); in experiment [2] (100% Urine (pH 6.42) vs CAMHB) it was 4 (100%); in experiment [2] (100% Urine (pH 7.31) vs CAMHB), 4 (100%); in experiment [2] (100% Urine (pH 8.07) vs CAMHB) it was 3 (75%). For the same compound, the Mean MIC in experiment [1] (25% Urine (pH 7.09)) is 1.12 mg/L; in experiment [1] (50% Urine (6.99)), 0.89 mg/L; in experiment [1] (100% Urine (pH 6.42)), 1.26 mg/L; in experiment [1] (100% Urine (pH 7.31)), 2.24 mg/L; in experiment [1] (100% Urine (pH 8.07)) it was 1.78 mg/L; in experiment [1] (CAMHB (ref. method, pH 7.2)), 0.79 mg/L. Besides, the Mean MIC is 0.17 mg/L in experiment [2] (25% Urine (pH 7.09)); 0.17 mg/L in experiment [2] (50% Urine (6.99)); 0.21 mg/L in experiment [2] (100% Urine (pH 6.42)); 0.25 mg/L in experiment [2] (100% Urine (pH 7.31)); 0.5 mg/L in experiment [2] (100% Urine (pH 8.07)); 0.15 mg/L in experiment [2] (CAMHB (ref. method, pH 7.2)).
As for `CO/N=C(\C(=O)N[C@@H]1C(=O)N2C(C(=O)O)=C(CSc3nc(=O)c(=O)[nH]n3C)CS[C@H]12)c1csc(N)n1` [ceftriaxone], the figures for the MIC90 in experiment [3] and in experiment [4] were 256 mg/L and 512 mg/L, respectively.
Consider `CCC[C@@H]1C[C@@H](C(=O)N[C@@H]([C@H]2O[C@H](SC)[C@H](O)[C@@H](O)[C@H]2O)[C@H](C)Cl)N(C)C1` [clindamycin], for which the MIC90 in experiment [3] and in experiment [4] was over 8 mg/L throughout.
As to Trimethoprim-sulfamethoxazole, the MIC is 0.03 µg/mL in experiment [5] (Participant #2 (E. coli)); 0.03 µg/mL in experiment [5] (Participant #3 (E. coli)); 0.03 µg/mL in experiment [5] (Participant #4 (E. coli)); >8^b μg/mL in experiment [5] (Participant #5 (E. coli, MDR and fluoroquinolone-resistant)); >8^b μg/mL in experiment [5] (Participant #6 (E. coli, MDR)).
For the compound `Cc1nnc(SCC2=C(C(=O)O)N3C(=O)[C@@H](NC(=O)Cn4cnnn4)[C@H]3SC2)s1` [Cefazolin], the MIC was 2 µg/mL (≈ 4.4 µM) in experiment [5] (Escherichia coli, Participant #2 (E. coli), read-out: MIC); 4 µg/mL (≈ 8.8 µM) in experiment [5] (Escherichia coli, Participant #3 (E. coli), read-out: MIC); 2 µg/mL (≈ 4.4 µM) in experiment [5] (Escherichia coli, Participant #4 (E. coli), read-out: MIC); 4 µg/mL (≈ 8.8 µM) in experiment [5] (Escherichia coli, Participant #5 (E. coli, MDR and fluoroquinolone-resistant), read-out: MIC); 32 µg/mL (≈ 70.4 µM) in experiment [5] (Escherichia coli, Participant #6 (E. coli, MDR), read-out: MIC).
Turning to `C[C@@H]1O[C@@H]1P(=O)(O)O` [fosfomycin], in experiment [6], the “Resistance among the baseline uropathogens recovered” value was “None of the baseline uropathogens recovered were resistant”.
